What was measured:
Format in all cases: functional
[1] = Antioxidant activity assessed as hydroxyl radical scavenging activity at 200 ug/ml
Rattus norvegicus [2] = test: Antihyperlipidemic activity in Rattus norvegicus Charles Foster (rat) trition WR-1339-induced hyperlipidemic model assessed as reduction of total triglyceride level in plasma at 200 mg/kg, po; parameters: scale not given: the % may be the effect or the level left
Rattus norvegicus [3] = test: Antihyperlipidemic activity in Rattus norvegicus Charles Foster (rat) trition WR-1339-induced hyperlipidemic model assessed as reduction of total cholesterol level in plasma at 200 mg/kg, po; parameters: scale not given: the % may be the effect or the level left
Rattus norvegicus [4] = test: Antihyperlipidemic activity in Rattus norvegicus Charles Foster (rat) trition WR-1339-induced hyperlipidemic model assessed as reduction of total phospholipid level in plasma at 200 mg/kg, po; parameters: scale not given: the % may be the effect or the level left
[5] = Antioxidant activity assessed as inhibition of xanthine-xanthine oxidase generated superoxide anion radical production at 100 ug/ml after 30 min by NBT reduction assay
[6] = Antioxidant activity assessed as hydroxyl radical scavenging activity at 100 ug/ml
[7] = Antioxidant activity assessed as inhibition of xanthine-xanthine oxidase generated superoxide anion radical production at 200 ug/ml after 30 min by NBT reduction assay

| Compound | Activity [1] | Activity (Rattus norvegicus [2]) | Activity (Rattus norvegicus [3]) | Activity (Rattus norvegicus [4]) | inhibition [5] | Activity [6] | inhibition [7] |
| --- | --- | --- | --- | --- | --- | --- | --- |
| OC[C@@H](O)[C@@H](O)[C@H](O)[C@H](O)CO | -48% | – | – | – | – | – | – |
| C/C=C1\C(=O)C[C@H]2[C@@H]3CCC4=CC(=O)CC[C@]4(C)[C@H]3CC[C@]12C [GUGGULSTERONE] | – | 36% | 35% | 35% | – | – | – |
| O=c1c(O)c(-c2cc(O)c(O)c(O)c2)oc2cc(O)cc(O)c12 [MYRICETIN] | 53% | 24% | 24% | 25% | 27% | -36% | – |
| O.O=C1CC(c2ccc(O)cc2)Oc2cc(O)cc(O)c21 (centres undefined) [NARINGENIN HYDRATE] | 38% | 26% | 27% | 27% | 19% | 26% | 34% |
| C[C@@H]1O[C@@H](OC[C@H]2O[C@@H](Oc3c(-c4ccc(O)c(O)c4)oc4cc(O)cc(O)c4c3=O)[C@H](O)[C@@H](O)[C@@H]2O)[C@H](O)[C@H](O)[C@H]1O [RUTIN] | 32% | 11% | 8% | 10% | 18% | 21% | 35% |

From ChEMBL document CHEMBL3046443, “Lipid lowering and antioxidant activity of flavones in triton treated hyperlipidemic rats” (2011)
